Results published in patent publication US20240366540A1, “MITOFUSIN INHIBITORS AND USES THEREOF” (Albert Einstein College of Medicine, priority 2021, published 2024).

Experiments:
U2OS cells [1] = assay: DNA damage, yH2AX immunofluorescence in U2OS; format: cell-based
Protocol: Immunofluorescent analysis and microscopy. Cells were treated with MASM7, MFI8 and or Q-VD-OPh at ˜70% confluence for 6 h. After treatments, cells were washed with PBS and fixed with 4% PFA for 15 min. Then cells were permeabilized with 0.1% Triton X-100 in PBS for 10 min. Cells were blocked with 5% BSA in PBS-T and incubated overnight with primary antibodies as indicated; yH2AX (Sigma; 05-636, 1:100 dilution). After incubation with primary antibodies, cells were washed with PBS and incubated with the appropriate mouse secondary antibody (ThermoFisher Scientific; A-11001) in the blocking solution. After PBS washes, coverslips were dipped in water and mounted on glass slides using Vectashield containing DAPI (Vector laboratories). […] Data were analyzed with ImageJ.

U2OS cells [2] = assay: Mitochondrial fusion in U2OS cells
cells = assay: Cell death assay (Annexin V / propidium iodide); format: cell-based; conditions: for sensitization to BV6-induced cell death: in combination with BV6
Protocol: (§1) Cell death assay. Cells (2×10^5 cells/well) were seeded in a 6-well plate and treated with the indicated drugs for 6 hours. Cells were dissociated using Accutase (Thermo Fisher; Cat. #00-4555-56) in order to avoid accidental exposure of phosphatidylserine on the outer plasma membrane. Cell death was evaluated with Dead Cell Apoptosis Kit with Annexin V Alexa Fluor™ 488 & Propidium Iodide (Thermo Fisher; Cat. #V13241) according to manufacturer's protocol. Data was acquired by BD LSRII flow cytometer system using BD FACSDiva software. Data was analyzed by FlowJo (BD).

MEFs [3] = assay: Metabolomics (TCA cycle carboxylic acids, NAD, NADH); format: cell-based, mouse; conditions: UPLC-MRM/MS
Protocol: Metabolomics. […] Cells were harvested using a cell scraper and centrifuged at 1200 rpm in 4° C. for 3 min. Each cell pellet sample was suspended into 250 to 700 μL of 80% aqueous methanol in an Eppendorf tube. The samples were vortex mixed for 15 s and sonicated in an ice-water bath for 5 min, followed by centrifugal clarification at 15,000 rpm and 5° C. in an Eppendorf […] centrifuge. The clear supernatants were collected. A standard stock solution of TCA cycle carboxylic acids, NAD and NADH was prepared in 80% methanol as S1. This standard solution S1 was serially diluted 1 to 4 (v/v) with the same solvent to make standard solutions S2 to S10. 20 μL of each standard solution and an aliquot of the clear supernatant from each cell was mixed with 20 μL of an internal standard solution containing 9 ^13C- or deuterium labeled analogues of the TCA cycle carboxylic acids (except isocitric acid), 20 μL of 200 mM 3-NPH solution and 20 μL of 150 mM of EDC solution. The mixtures were allowed to react at 30° C. for 30 min. After reaction, 120 μL of water was added to each solution. 10 μL of the resultant solutions was injected into a C18 UPLC column to quantitate the TCA cycle carboxylic acids by UPLC-MRM/MS with (-) ion detection, according to the procedure we described in a publication.

MOLM13 cells = assay: Cell viability, leukemia cells; format: cell-based; conditions: MOLM13, 72 hr, Cell titer Glo
Protocol: (§2) Cell titer Glo was used to measure viability. Cells were treated with MFI8 for 72 hr (n=3, mean±SD).
(§3) Cell viability assay. Cells (5×10^3 cells/well) were seeded in a 96-well white plate and treated with serial dilutions of MASM7 or MFI8. Cell viability was assayed after 72 hrs by addition of CellTiter-Glo reagent according to the manufacturer's protocol (Promega). Luminescence was measured using a F200 PRO microplate reader (TECAN). Viability assays were performed in at least triplicate and the data normalized to vehicle-treated control wells. Dilutions of MASM7 or MFI8 were performed using a TECAN D300e Digital Dispenser from 10 mM stocks.

MV-411 cells = assay: Cell viability, leukemia cells; format: cell-based; conditions: MV-411, 72 hr, Cell titer Glo
Protocol: as §2, §3

U2OS cells [4] = assay: Caspase-3/7 activation assay in U2OS cells; format: cell-based
Protocol: (§4) Caspase-3/7 activation assay. Cells (5×10^3 cells/well) were seeded in a 96-well white plate and treated with MASM7, MFI8. Caspase 3/7 activation was measured after 6 hr by addition of the Caspase-Glo 3/7 reagent according to the manufacturer's protocol (Promega). Luminescence was detected by a F200 PRO microplate reader (TECAN). Caspase assays were performed in at least triplicate and the data normalized to vehicle-treated control wells. Dilutions of MASM7 or MFI8 were performed using a TECAN D300e Digital Dispenser from 10 mM stocks.

H508 cells = assay: Cell viability, colon cancer cells; format: cell-based; conditions: H508, 72 hr, Cell titer Glo
Protocol: as §2, §3

HT29 cells = assay: Cell viability, colon cancer cells; format: cell-based; conditions: HT29, 72 hr, Cell titer Glo
Protocol: as §2, §3

A375 cells = assay: Cell viability, melanoma cells; format: cell-based; conditions: A375, 72 hr, Cell titer Glo
Protocol: as §2, §3

SKML-30 cells = assay: Cell viability, melanoma cells; format: cell-based; conditions: SKML-30, 72 hr, Cell titer Glo
Protocol: as §2, §3

MEFs [5] = assay: Caspase-3/7 activation assay; format: cell-based, mouse
Protocol: as §4

[6] = tested on: mitochondrial biogenesis markers; assay: Mitochondrial biogenesis markers by q-PCR; format: cell-based
Protocol: Analysis of mitochondrial biogenesis-related genes by q-PCR. Total RNA was extracted by using RNeasy Mini Kit (Qiagen) followed by cDNA synthesis using the SuperScript IV VILO Master Mix (Thermo Scientific), both performed according to the manufacturer's protocol. q-PCR was performed using the following primers: For the q-PCR reaction, Power SYBR Green master mix (Thermo Scientific) was used according to the manufacturer's instructions. […] Rpl39 was used as housekeeping gene and 2^−ΔΔCT method was applied to determine the relative mRNAs expression.

U2OS cells [7] = assay: Cell death with BV6 in U2OS cells; format: cell-based
Protocol: as §1

Calu-6 cells = assay: Cell death (Annexin V) in Calu-6 cells; format: cell-based; conditions: 20 μM, indicated timepoints
Protocol: Calu-6 cells were treated with MFI8 (20 μM). Cell death was monitored at the indicated timepoints using Annexin V as a readout. Data represent mean (n=3).
as §1

Question: Which “DNA damage (yH2AX)” value (U2OS cells [1]; U2OS cells) does the source give for `Cc1cccc(NC(C)c2cc(Cl)ccc2O)c1C` (centres unmarked) [MFI8, 4-Chloro-2-(1-((2,3-dimethylphenyl)amino)ethyl)phenol] here?
Answer: induced DNA damage in U2OS cells

Question: What about the “DNA damage (yH2AX)” value (U2OS cells [1]; U2OS, co-treatment with pan-caspase inhibitor Q-VD-OPh) of the same molecule?
Answer: abolished the capacity of the latter to induce DNA damage

Question: And the mitochondrial fusion (U2OS cells [2])?
Answer: inhibited mitochondrial fusion

Question: What about the “percentage of dead cells” value (cells; compound alone, upon caspase 3/7 activation) of the same molecule?
Answer: did not increase the percentage of dead cells

Question: What about the “sensitization to BV6-induced cell death” value (cells) of the same molecule?
Answer: potentiated the capacity of BV6 to induce cell death

Question: What about the “sensitization to BV6-induced cell death” value (cells; deletion of MFN1/2 and APAF) of the same molecule?
Answer: abolished the capacity of MFI8 to sensitize cells to BV6 treatment

Question: And the “metabolites of the TCA cycle” value (MEFs [3])?
Answer: markedly reduced several metabolites such as malate, oxaloacetate, and α-ketoglutarate

Question: And the viability (MOLM13 cells)?
Answer: concentration responsively reduces viability

Question: What about the viability (MV-411 cells) of the same molecule?
Answer: concentration responsively reduces viability

Question: And the caspase-3/7 activation (U2OS cells [4])?
Answer: induced caspase-3/7 activation

Question: What about the viability (H508 cells) of the same molecule?
Answer: concentration responsively reduces viability

Question: What about the viability (HT29 cells) of the same molecule?
Answer: concentration responsively reduces viability

Question: What about the viability (A375 cells) of the same molecule?
Answer: concentration responsively reduces viability

Question: And the viability (SKML-30 cells)?
Answer: concentration responsively reduces viability

Question: What about the caspase-3/7 activity (MEFs [5]; 6 hr, Caspase-Glo 3/7) of the same molecule?
Answer: concentration-responsively increased caspase-3/7 activity

Question: And the “caspase 3/7 activity” value (MEFs [5]; deletion of APAF-1)?
Answer: detrimental for the capacity of MFI8 to increase caspase 3/7 activity

Question: And the caspase-3/7 activity (MEFs [5]; deletion of MFN1/MFN2)?
Answer: impaired the capacity of MFI8 to increase caspase-3/7 activity

Question: And the “gene expression levels of mitochondrial biogenesis markers” value [6]?
Answer: no alteration

Question: What about the “cell death in combination with BV6” value (U2OS cells [7]) of the same molecule?
Answer: synergistically induce cell death

Question: What about the “apoptosis / cell death (Annexin V)” value (Calu-6 cells) of the same molecule?
Answer: induces apoptosis in Calu-6 cells
